Like-named read-outs stand apart in the source and are kept apart here.
Experiments:
HL60 = assay: Cell growth inhibition in HL60; assay type: cell-based; details: read-out: Cell Growth Inhibition (IC50) HL60
CBP = molecular target: T1, CBP (Homo sapiens, UniProt Q92793); assay: CBP degradation in 22Rv1 cells (5 h); assay type: cell-based; details: 22Rv1 cells, 5 h; for Dmax: 22Rv1, 5 h, read-out: CBP Degradation (22Rv1, 5 h) DCmax
T1 construct: endogenous in cells; host or cells: 22Rv1 (ATCC CRL-2505) human prostate cancer cells
T1 sequence (Q92793 whole entry): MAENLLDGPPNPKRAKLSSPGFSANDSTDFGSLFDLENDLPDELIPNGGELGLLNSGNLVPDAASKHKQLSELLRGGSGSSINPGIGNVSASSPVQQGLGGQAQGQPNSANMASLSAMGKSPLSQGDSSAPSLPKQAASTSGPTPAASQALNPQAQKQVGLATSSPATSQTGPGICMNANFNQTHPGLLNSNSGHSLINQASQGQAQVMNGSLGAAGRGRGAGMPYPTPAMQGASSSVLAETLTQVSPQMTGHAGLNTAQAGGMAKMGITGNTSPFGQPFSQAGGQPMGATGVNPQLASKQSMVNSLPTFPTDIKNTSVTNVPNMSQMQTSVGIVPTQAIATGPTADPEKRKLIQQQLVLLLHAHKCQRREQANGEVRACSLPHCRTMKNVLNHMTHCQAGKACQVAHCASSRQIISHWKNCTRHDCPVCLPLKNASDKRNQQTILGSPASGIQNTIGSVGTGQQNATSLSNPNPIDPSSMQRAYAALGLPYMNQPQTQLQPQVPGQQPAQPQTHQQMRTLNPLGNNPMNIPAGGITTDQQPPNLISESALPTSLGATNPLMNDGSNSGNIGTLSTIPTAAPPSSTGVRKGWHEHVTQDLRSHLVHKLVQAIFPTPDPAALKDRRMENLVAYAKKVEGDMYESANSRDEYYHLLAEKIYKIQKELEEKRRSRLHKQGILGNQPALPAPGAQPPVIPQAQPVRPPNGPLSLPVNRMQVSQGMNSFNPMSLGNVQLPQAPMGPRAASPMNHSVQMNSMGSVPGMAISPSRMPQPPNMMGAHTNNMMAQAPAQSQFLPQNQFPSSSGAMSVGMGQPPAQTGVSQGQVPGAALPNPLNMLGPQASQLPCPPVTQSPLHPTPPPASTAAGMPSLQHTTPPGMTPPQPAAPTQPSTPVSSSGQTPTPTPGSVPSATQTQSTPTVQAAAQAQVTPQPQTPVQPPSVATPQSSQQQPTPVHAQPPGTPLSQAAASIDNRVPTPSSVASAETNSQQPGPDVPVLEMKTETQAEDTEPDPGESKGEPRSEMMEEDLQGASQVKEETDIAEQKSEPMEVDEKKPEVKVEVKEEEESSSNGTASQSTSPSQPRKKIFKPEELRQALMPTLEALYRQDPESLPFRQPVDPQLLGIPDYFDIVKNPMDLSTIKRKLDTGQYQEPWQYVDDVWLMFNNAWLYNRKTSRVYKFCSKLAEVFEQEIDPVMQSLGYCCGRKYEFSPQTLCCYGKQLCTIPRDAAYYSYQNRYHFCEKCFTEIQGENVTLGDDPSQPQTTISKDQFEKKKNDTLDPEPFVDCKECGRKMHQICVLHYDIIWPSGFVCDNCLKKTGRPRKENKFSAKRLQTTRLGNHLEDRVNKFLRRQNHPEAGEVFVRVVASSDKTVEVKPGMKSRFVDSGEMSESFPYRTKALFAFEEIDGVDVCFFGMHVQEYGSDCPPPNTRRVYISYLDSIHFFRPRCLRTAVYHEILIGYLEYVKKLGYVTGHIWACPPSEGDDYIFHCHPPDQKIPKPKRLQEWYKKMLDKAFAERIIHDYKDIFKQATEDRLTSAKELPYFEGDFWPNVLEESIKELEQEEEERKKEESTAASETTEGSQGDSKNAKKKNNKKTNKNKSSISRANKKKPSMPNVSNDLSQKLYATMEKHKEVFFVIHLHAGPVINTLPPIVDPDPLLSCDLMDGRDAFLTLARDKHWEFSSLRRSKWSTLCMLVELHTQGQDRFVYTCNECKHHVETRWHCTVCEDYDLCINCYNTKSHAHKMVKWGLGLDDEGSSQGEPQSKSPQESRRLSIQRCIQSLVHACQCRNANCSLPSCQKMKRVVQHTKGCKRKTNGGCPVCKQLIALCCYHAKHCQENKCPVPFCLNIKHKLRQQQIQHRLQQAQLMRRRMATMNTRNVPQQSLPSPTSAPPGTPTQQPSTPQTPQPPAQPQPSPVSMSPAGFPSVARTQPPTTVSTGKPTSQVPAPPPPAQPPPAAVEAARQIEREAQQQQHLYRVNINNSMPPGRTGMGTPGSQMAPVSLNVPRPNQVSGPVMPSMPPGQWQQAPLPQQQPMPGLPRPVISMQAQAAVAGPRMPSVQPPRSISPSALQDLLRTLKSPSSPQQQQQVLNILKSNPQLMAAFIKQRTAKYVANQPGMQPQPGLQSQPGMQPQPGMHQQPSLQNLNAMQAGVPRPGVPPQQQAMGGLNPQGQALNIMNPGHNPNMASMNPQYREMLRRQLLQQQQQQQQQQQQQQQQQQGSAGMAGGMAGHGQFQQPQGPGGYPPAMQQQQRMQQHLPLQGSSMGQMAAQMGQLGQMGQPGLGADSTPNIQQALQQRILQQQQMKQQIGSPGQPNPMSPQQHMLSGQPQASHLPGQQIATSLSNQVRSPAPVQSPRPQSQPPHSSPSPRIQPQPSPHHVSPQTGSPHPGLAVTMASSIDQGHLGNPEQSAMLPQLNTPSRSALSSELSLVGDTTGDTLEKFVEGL
Description: Biological Assays. […] Cells with 3-8 passages after purchase were used in experiments.

22Rv1 cells = assay: Cell growth inhibition assay (CellTiter-Glo) in 22Rv1; assay type: cell-based, human; details: 22Rv1 cells, 96 h incubation, read-out: Cell Growth Inhibition (IC50) 22Rv1
Procedure: Biological Assays. CBP/p300 degradation activity and cell growth inhibition were evaluated in the human prostate cancer cell line 22Rv1 (ATCC© CRL-2505™) purchased from the American Type Culture Collection (ATCC), Manassas, VA, and maintained and cultured in Dulbecco's Modified Eagle's medium (DMEM) containing 10% fetal bovine serum, 1 unit/ml of penicillin and 1 μg/ml of streptomycin. Cells with 3-8 passages after purchase were used in experiments.
Cell Growth Inhibition Assay Protocol. 22RV1 cells were seeded at a concentration of 4000 cells/well in 100 μl culture medium and 2 μl of test compound (final concentration start from 10 μM and 3 times dilution) into 96 well microplates (Corning 3903). The cell cultures were incubated for 96 h at +37° C. and 5% CO2. The plate and its contents were equilibrated to room temperature for approximately 30 minutes. 100 μl of CellTiter-Glo® 2.0 Reagent equal to the volume of cell culture medium present was added in each well. The contents were mixed for 2 minutes on an orbital shaker. The plate was allowed to incubate at room temperature for 10 minutes. The luminescence was recorded. The data was analyzed by Prism GraphPad 8.

[1] = Homo sapiens, HL-60, HL60 cells

SMILES	IC50 (HL60; [1]) [nM]	Dmax (CBP) [%]	DC50 (CBP) [nM]	IC50 (22Rv1 cells; Homo sapiens, 22Rv1, 96 h) [nM]	IC50 (HL60; HL60 cells) [nM]	CBP Degradation (22Rv1, 5 h) DCmax (CBP)	IC50 (22Rv1 cells) [nM]
CC(=O)N1CCc2c(c(N3CCCc4ccc(C(F)F)cc43)nn2C2CCN(C(=O)CN3CCc4cc5c(cc4C3)C(=O)N(C3CCC(=O)NC3=O)C5=O)CC2)C1 (stereo not shown) [CP-009, 6-(2-(4-(5-acetyl-3-(7-(difluoromethyl)-3,4-dihydroquinolin-1(2H)-yl)-4,5,6,7-tetrahydro-1H-pyrazolo[4,3-c]pyridin-1-yl)piperidin-1-yl)-2-oxoethyl)-2-(2,6-dioxopiperidin-3-yl)-5,6,7,8-tetrahydro-1H-pyrrolo[3,4-g]isoquinoline-1,3(2H)-dione]	< 100	> 90	< 10	< 1000			
CC(=O)N1CCc2c(c(N3CCCc4cc(-c5cnn(C)c5)c(C(F)F)cc43)nn2C2CCN(CC(=O)N3CCc4cc5c(cc4C3)C(=O)N(C3CCC(=O)NC3=O)C5=O)CC2)C1 (stereo not shown) [CP-002, 6-(2-(4-(5-acetyl-3-(7-(difluoromethyl)-6-(1-methyl-1H-pyrazol-4-yl)-3,4-dihydroquinolin-1(2H)-yl)-4,5,6,7-tetrahydro-1H-pyrazolo[4,3-c]pyridin-1-yl)piperidin-1-yl)acetyl)-2-(2,6-dioxopiperidin-3-yl)-5,6,7,8-tetrahydro-1H-pyrrolo[3,4-g]isoquinoline-1,3(2H)-dione]	< 1000	> 90	< 10	< 10000			
CC(=O)N1CCc2c(c(N3CCCc4cc(-c5cnn(C)c5)c(C(F)F)cc43)nn2C2CCN(C(=O)CCN3Cc4cc5c(cc4C3)C(=O)N(C3CCC(=O)NC3=O)C5=O)CC2)C1 (stereo not shown) [CP-007, 6-(3-(4-(5-acetyl-3-(7-(difluoromethyl)-6-(1-methyl-1H-pyrazol-4-yl)-3,4-dihydroquinolin-1(2H)-yl)-4,5,6,7-tetrahydro-1H-pyrazolo[4,3-c]pyridin-1-yl)piperidin-1-yl)-3-oxopropyl)-2-(2,6-dioxopiperidin-3-yl)-6,7-dihydropyrrolo[3,4-f]isoindole-1,3(2H,5H)-dione]	< 1000	> 70	< 100	< 1000			
CC(=O)N1CCc2c(c(N3CCCc4cc(-c5cnn(C)c5)c(C(F)F)cc43)nn2C[C@H]2CC[C@@H](C(=O)N3Cc4cc5c(cc4C3)C(=O)N(C3CCC(=O)NC3=O)C5=O)CC2)C1 (stereo partly drawn) [CP-031, cis-6-(4-((5-acetyl-3-(7-(difluoromethyl)-6-(1-methyl-1H-pyrazol-4-yl)-3,4-dihydroquinolin-1(2H)-yl)-4,5,6,7-tetrahydro-1H-pyrazolo[4,3-c]pyridin-1-yl)methyl)cyclohexane-1-carbonyl)-2-(2,6-dioxopiperidin-3-yl)-6,7-dihydropyrrolo[3,4-f]isoindole-1,3(2H,5H)-dione]	< 1000	> 50	< 100	< 10000			
CC(=O)N1CCc2c(c(N3CCCc4cc(-c5cnn(C)c5)c(C(F)F)cc43)nn2C[C@H]2CC[C@@H](N3CCc4cc5c(cc4C3)C(=O)N(C3CCC(=O)NC3=O)C5=O)CC2)C1 (relative stereo) [CP-042, 6-(4-((5-acetyl-3-(7-(difluoromethyl)-6-(1-methyl-1H-pyrazol-4-yl)-3,4-dihydroquinolin-1(2H)-yl)-4,5,6,7-tetrahydro-1H-pyrazolo[4,3-c]pyridin-1-yl)methyl)cyclohexyl)-2-(2,6-dioxopiperidin-3-yl)-5,6,7,8-tetrahydro-1H-pyrrolo[3,4-g]isoquinoline-1,3(2H)-dione]	< 100	> 90	< 10	< 1000			
CC(=O)N1CCc2c(c(N3CCCc4cc(-c5cnn(C)c5)c(C(F)F)cc43)nn2C2CCC(C(=O)N3Cc4cc5c(cc4C3)C(=O)N(C3CCC(=O)NC3=O)C5=O)CC2)C1 (stereo not shown) [CP-034, 6-(4-(5-acetyl-3-(7-(difluoromethyl)-6-(1-methyl-1H-pyrazol-4-yl)-3,4-dihydroquinolin-1(2H)-yl)-4,5,6,7-tetrahydro-1H-pyrazolo[4,3-c]pyridin-1-yl)cyclohexane-1-carbonyl)-2-(2,6-dioxopiperidin-3-yl)-6,7-dihydropyrrolo[3,4-f]isoindole-1,3(2H,5H)-dione]			< 10		< 100	+++ (>90% = +++)	< 1000
CC(=O)N1CCc2c(c(N3CCCc4cc(-c5cnn(C6CCN(C(=O)CN7Cc8cc9c(cc8C7)C(=O)N(C7CCC(=O)NC7=O)C9=O)CC6)c5)c(C(F)F)cc43)nn2C2CCOCC2)C1 (stereo not shown) [CP-072, 6-(2-(4-(4-(1-(5-acetyl-1-(tetrahydro-2H-pyran-4-yl)-4,5,6,7-tetrahydro-1H-pyrazolo[4,3-c]pyridin-3-yl)-7-(difluoromethyl)-1,2,3,4-tetrahydroquinolin-6-yl)-1H-pyrazol-1-yl)piperidin-1-yl)-2-oxoethyl)-2-(2,6-dioxopiperidin-3-yl)-6,7-dihydropyrrolo[3,4-f]isoindole-1,3(2H,5H)-dione]	< 100	> 90	< 10	< 100			
CC(=O)N1CCc2c(c(N3CCCc4cc(-c5cnn(C)c5)c(C(F)F)cc43)nn2C2CCN(C(=O)CN3CCc4cc5c(cc4C3)C(=O)N(C3CCC(=O)NC3=O)C5=O)CC2)C1 (stereo not shown) [CP-001, 6-(2-(4-(5-acetyl-3-(7-(difluoromethyl)-6-(1-methyl-1H-pyrazol-4-yl)-3,4-dihydroquinolin-1(2H)-yl)-4,5,6,7-tetrahydro-1H-pyrazolo[4,3-c]pyridin-1-yl)piperidin-1-yl)-2-oxoethyl)-2-(2,6-dioxopiperidin-3-yl)-5,6,7,8-tetrahydro-1H-pyrrolo[3,4-g]isoquinoline-1,3(2H)-dione]	< 100	> 90	< 10	< 100			
CC(=O)N1CCc2c(c(N3CCCc4cc(-c5cnn(C)c5)c(C(F)F)cc43)nn2C[C@H]2CC[C@H](C(=O)N3CCc4cc5c(cc4C3)C(=O)N(C3CCC(=O)NC3=O)C5=O)CC2)C1 (stereo partly drawn) [CP-030, trans-6-(4-((5-acetyl-3-(7-(difluoromethyl)-6-(1-methyl-1H-pyrazol-4-yl)-3,4-dihydroquinolin-1(2H)-yl)-4,5,6,7-tetrahydro-1H-pyrazolo[4,3-c]pyridin-1-yl)methyl)cyclohexane-1-carbonyl)-2-(2,6-dioxopiperidin-3-yl)-5,6,7,8-tetrahydro-1H-pyrrolo[3,4-g]isoquinoline-1,3(2H)-dione]	< 1000	< 50	> 1000	< 10000			
CC(=O)N1CCc2c(c(N3CCCc4cc(-c5cnn(C)c5)c(C(F)F)cc43)nn2C2CCN(C(=O)CCCN3Cc4cc5c(cc4C3)C(=O)N(C3CCC(=O)NC3=O)C5=O)CC2)C1 (stereo not shown) [CP-008, 6-(4-(4-(5-acetyl-3-(7-(difluoromethyl)-6-(1-methyl-1H-pyrazol-4-yl)-3,4-dihydroquinolin-1(2H)-yl)-4,5,6,7-tetrahydro-1H-pyrazolo[4,3-c]pyridin-1-yl)piperidin-1-yl)-4-oxobutyl)-2-(2,6-dioxopiperidin-3-yl)-6,7-dihydropyrrolo[3,4-f]isoindole-1,3(2H,5H)-dione]	< 100	> 70	< 10	< 100			
